How the values were obtained:
mGlu4 = mGlu4 (UniProt Q14833); conditions: read-out: mGlu4 PAM EC50
[1] = free drug level (fu) in rat plasma; format: in vitro ADME
Excerpt: (§1) As the only drug that interact with mGlu4 is free drug, the compounds of the present invention have unexpectedly exceptional profiles as putative drug candidates.

[2] = in vitro DMPK: human intrinsic and predicted hepatic clearance; format: in vitro ADME; conditions: for Human CLINT: in vitro, unit assumed; for Human CLHEP: predicted human clearance, human hepatic blood flow 20 mL/min/kg
Excerpt: as §1

human mGluR4 = molecular target: T1, human mGluR4 (Homo sapiens, UniProt Q14833); assay: human mGluR4 potentiation assay, CHO cells transfected with human mGluR4, Ca2+-sensitive dye; format: cell-based; conditions: human mGlu4; read-out: hmGlu4 EC50
T1 construct: expressed in transfected cells; host or cells: CHO cells
T1 sequence (Q14833 33-912): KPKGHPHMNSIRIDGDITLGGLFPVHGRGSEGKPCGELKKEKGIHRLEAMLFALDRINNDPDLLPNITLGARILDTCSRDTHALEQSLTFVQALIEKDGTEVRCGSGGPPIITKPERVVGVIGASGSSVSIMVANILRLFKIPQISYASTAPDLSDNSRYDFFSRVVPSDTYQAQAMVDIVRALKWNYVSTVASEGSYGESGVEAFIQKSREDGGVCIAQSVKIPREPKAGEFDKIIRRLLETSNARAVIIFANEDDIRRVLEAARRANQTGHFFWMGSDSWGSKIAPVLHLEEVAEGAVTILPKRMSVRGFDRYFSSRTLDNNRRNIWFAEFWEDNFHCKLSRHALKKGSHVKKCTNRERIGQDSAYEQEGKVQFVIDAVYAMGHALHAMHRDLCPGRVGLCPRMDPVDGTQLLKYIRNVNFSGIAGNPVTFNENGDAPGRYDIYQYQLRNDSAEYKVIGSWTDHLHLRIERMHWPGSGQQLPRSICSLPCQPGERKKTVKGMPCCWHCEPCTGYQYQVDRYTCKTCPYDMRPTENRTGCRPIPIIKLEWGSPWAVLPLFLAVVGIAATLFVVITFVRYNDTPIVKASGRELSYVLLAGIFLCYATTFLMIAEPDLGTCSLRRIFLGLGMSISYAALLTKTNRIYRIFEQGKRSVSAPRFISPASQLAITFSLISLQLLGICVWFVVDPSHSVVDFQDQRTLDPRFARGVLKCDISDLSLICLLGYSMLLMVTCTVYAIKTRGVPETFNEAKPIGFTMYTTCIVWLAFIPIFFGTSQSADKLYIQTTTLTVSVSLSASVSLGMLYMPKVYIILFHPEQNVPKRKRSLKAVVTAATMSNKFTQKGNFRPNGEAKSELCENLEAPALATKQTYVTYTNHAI
Description: The disclosed compounds and compositions can be evaluated for their ability to act as a potentiator of metabotropic glutamate receptor activity, in particular mGluR4 activity, by any suitable known methodology known in the art. For example, Chinese Hamster Ovary (CHO) cells transfected with human mGluR4 or HEK cells co-transfected with rat mGluR4 and the G-protein regulated Inwardly Rectifying Potassium channel (GIRK) were plated in clear bottom assay plates for assay in a Hamamatsu FDSS Fluorometric Plate Reader. The cells were loaded with either a Ca2+-sensitive fluorescent dye or the thallium responsive dye and the plates were washed and placed into a suitable kinetic plate reader. For human mGluR4 assays, a fluorescence baseline was established for 3-5 seconds, the disclosed compounds were then added to the cells, and the response in cells was measured. Approximately two and a half minutes later, a concentration of mGluR4 orthosteric agonist (e.g. glutamate or L-AP4) eliciting approximately 20% (EC20) of the maximal agonist response was added to the cells, and the response was measured. Two minutes later, a concentration of mGluR4 agonist (e.g. glutamate or L-AP4) eliciting 80% (EC80) of the maximal agonist response was added to the cells, and the response was measured. For rat mGluR4/GIRK experiments, a baseline was established for approximately five seconds, disclosed compounds were added, and either an EC20 or EC80 concentration of agonist was added approximately two and one half minutes later. Potentiation of the agonist response of mGluR4 by the disclosed compounds was observed as an increase in response to the EC20 concentration of agonist in the presence of compound compared to the response to agonist in the absence of compound. Similarly, antagonism of the agonist response of mGluR4 by the disclosed compounds was observed as a decrease in response to the EC80 concentration of agonist in the presence of compound compared to the response to agonist in the absence of compound.
The above described assay operated in two modes. In the first mode, a range of concentrations of the disclosed compounds are added to cells, followed by a single fixed concentration of agonist. If the compound acts as a potentiatior, an EC50 value for potentiation and a maximum extent of potentiation by the compound at this concentration of agonist is determined by non-linear curve fitting. If the compound acts as a noncompetitive antagonist, an IC50 value is determined by non-linear curve fitting. In the second mode, several fixed concentrations of the disclosed compounds are added to various wells on a plate, followed by a range in concentrations of agonist for each concentration of disclosed compound. The EC50 values for the agonist at each concentration of compound are determined by non-linear curve fitting. A decrease in the EC50 value of the agonist with increasing concentrations of the sample compound (a leftward shift of the agonist concentration-response curve) is an indication of the degree of mGluR4 potentiation at a given concentration of the sample compound. A decrease in the maximal response of the agonist with increasing concentrations of the sample compounds, with or without a rightward shift in agonist potency, is an indication of the degree of noncompetitive antagonism at mGluR4. The second mode also indicates whether the sample compounds also affect the maximum response to mGluR4 to agonists.

[3] = rat brain homogenate binding (BHB); format: in vitro ADME; conditions: read-out: Rat BHB fu
Excerpt: as §1

[4] = free drug level (fu) in human plasma; format: in vitro ADME
Excerpt: as §1

[5] = in vitro DMPK: rat intrinsic and predicted hepatic clearance; format: in vitro ADME; conditions: for Rat CLINT: in vitro, unit assumed; for Rat CLHEP: predicted
Excerpt: as §1

| fraction unbound [1] | Human CLINT [2] | Human CLHEP [2] | EC50 (human mGluR4) | fraction unbound [3] | fraction unbound [4] | Rat CLINT [5] | Rat CLHEP [5] | SMILES | EC50 (mGlu4) |
| --- | --- | --- | --- | --- | --- | --- | --- | --- | --- |
| – | – | – | – | – | – | – | – | CN(C(=O)c1nccc2cc(Nc3n[nH]c4cccnc34)ccc12)C1CC(F)C1 (centres unmarked) [Compound 20] | 546 nM |
| – | – | – | – | – | – | – | – | CN(C(=O)c1nccc2cc(Nc3n[nH]c4ncccc34)ccc12)C1CC(F)C1 (centres unmarked) [Compound 22] | 1800 nM |
| – | – | – | – | – | – | – | – | CN(C(=O)c1nccc2cc(Nc3n[nH]c4cccnc34)ccc12)C1CC(F)(F)C1 [Compound 23] | 339 nM |
| – | – | – | – | – | – | – | – | CN(C(=O)c1nccc2cc(Nc3n[nH]c4ncccc34)ccc12)C1CC(F)(F)C1 [Compound 24] | 1240 nM |
| – | – | – | – | – | – | – | – | CN(C(=O)c1nccc2cc(Nc3n[nH]c4ncccc34)ccc12)C1CCOC1 (centres unmarked) [Compound 25] | 4370 nM |
| – | – | – | – | – | – | – | – | CN(C(=O)c1nccc2cc(Nc3n[nH]c4cccnc34)ccc12)C1CCOC1 (centres unmarked) [Compound 26] | 1850 nM |
| 0.158 | 172 mL/min/kg | 18.7 mL/min/kg | 117 nM | 0.05 | 0.015 | 885 mL/min/kg | 64.9 mL/min/kg | O=C(c1nccc2cc(Nc3n[nH]c4cccnc34)ccc12)N1CCCC(F)(F)C1 [Example 4] | – |
| 0.327 | 6.91 mL/min/kg | 5.20 mL/min/kg | 366 nM | 0.095 | 0.094 | 32.5 mL/min/kg | 22.2 mL/min/kg | O=C(c1nccc2cc(Nc3n[nH]c4cccnc34)ccc12)N1CC[C@H](F)C1 [Example 5] | – |
| 0.328 | 7.44 mL/min/kg | 5.49 mL/min/kg | 268 nM | 0.085 | 0.134 | 230 mL/min/kg | 53.7 mL/min/kg | CS(=O)(=O)N1CCN(C(=O)c2nccc3cc(Nc4n[nH]c5cccnc45)ccc23)CC1 [Example 6] | – |
| 0.168 | 87.4 mL/min/kg | 16.9 mL/min/kg | 57.7 nM | 0.055 | 0.094 | 568 mL/min/kg | 62.3 mL/min/kg | O=C(c1nccc2cc(Nc3n[nH]c4cccnc34)ccc12)N1CCC(F)(F)CC1 [Example 7] | – |
| 0.107 | 6.61 mL/min/kg | 5.03 mL/min/kg | 21 nM | 0.02 | 0.11 | 32.4 mL/min/kg | 22.2 mL/min/kg | O=C(NC1CC(F)C1)c1nccc2cc(Nc3n[nH]c4cccnc34)ccc12 (centres unmarked) [Example 8] | – |
| 0.076 | 9.01 mL/min/kg | 6.30 mL/min/kg | 9.91 nM | 0.01 | 0.09 | 32.8 mL/min/kg | 22.3 mL/min/kg | O=C(NC1CC(F)(F)C1)c1nccc2cc(Nc3n[nH]c4cccnc34)ccc12 [Example 9] | – |
| 0.089 | 10.2 mL/min/kg | 6.86 mL/min/kg | 25.5 nM | 0.082 | 0.059 | 26.7 mL/min/kg | 19.3 mL/min/kg | COC1CC(NC(=O)c2nccc3cc(Nc4n[nH]c5cccnc45)ccc23)C1 (centres unmarked) [Example 10] | – |
| 0.229 | 0.63 mL/min/kg | 0.61 mL/min/kg | 59.9 nM | 0.068 | 0.188 | 2.82 mL/min/kg | 2.71 mL/min/kg | O=C(NC1CCOC1)c1nccc2cc(Nc3n[nH]c4cccnc34)ccc12 (centres unmarked) [Example 11] | – |
| 0.075 | 7.64 mL/min/kg | 5.60 mL/min/kg | 56.2 nM | 0.009 | 0.073 | 37 mL/min/kg | 24.2 mL/min/kg | O=C(NC1CC(F)(F)C1)c1nccc2cc(Nc3n[nH]c4ncccc34)ccc12 [Example 27] | – |
| 0.179 | 83.4 mL/min/kg | 16.8 mL/min/kg | 511 nM | 0.028 | 0.218 | 328 mL/min/kg | 57.7 mL/min/kg | O=C(c1nccc2cc(Nc3n[nH]c4ncccc34)ccc12)N1CCC(F)(F)CC1 [Example 28] | – |
